Earlier results on two molecules are cited in patent US20200246404A1, “FORMULATIONS” (Molecular Infusions, LLC, priority 2017, published 2020).

In one data set the test system is human PBMCs. Particulars: human PBMCs in vitro.
The next data set relates to encephalitogenic T cells. The following applies: encephalitogenic T cells after in vivo application to rats.

In the case of `CCOC(=O)C(C)=O` [Ethyl pyruvate], the “release of IFN-γ and IL-17” value in the data set with human PBMCs and in the data set with encephalitogenic T cells was “efficiently suppressed” throughout.

For `CCCCCc1cc(O)c2c(c1)OC(C)(C)[C@@H]1CCC(C)=C[C@@H]21` [dronabinol, Synthetic Δ9-tetrahydrocannabinol], the “duration of action for psychoactive effects” value (in vivo) is 4 to 6 h. For the setting “oral”, the “administered dose that reaches the systemic circulation” value is given as 10 to 20%.
